This note sets out measurements from ChEMBL document CHEMBL5150037, “Synthesis and in vitro biological evaluation of 3-ethyl-1,5-naphthyridin-2(1H)-one derivatives as potent PARP-1 selective inhibitors and PARP-1 DNA trappers” (Bioorg Med Chem Lett, 2022).

In experiment [1] the target is T1, Poly [ADP-ribose] polymerase 1 (Homo sapiens, UniProt P09874). The experiment is described as follows: Inhibition of PARP-1 (unknown origin) binding to DNA assessed as DNA trapping activity.
Experiment [2] concerns the target T2, Poly [ADP-ribose] polymerase 2 (Homo sapiens, UniProt Q9UGN5). The experiment in a line: Inhibition of PARP-2 (unknown origin) binding to DNA assessed as DNA trapping activity.
The target of experiment [3] is T1, Poly [ADP-ribose] polymerase 1. The experiment in a line: Inhibition of PARP-1 (unknown origin).
The target in experiment [4] is T2, Poly [ADP-ribose] polymerase 2. The experiment is described as follows: Inhibition of PARP-2 (unknown origin).
In experiment [5] the test system is DLD-1. The experiment in a line: Antiproliferative activity against human DLD-1 cells harbouring wild type BRCA assessed as inhibition of cell growth. Type of experiment: functional, cell-based.
The subject of experiment [6] is DLD-1. The experiment in a line: Antiproliferative activity against human DLD-1 cells harbouring BRCA-2 mutant assessed as inhibition of cell growth. The format is functional, cell-based.

T1 sequence (P09874 whole entry): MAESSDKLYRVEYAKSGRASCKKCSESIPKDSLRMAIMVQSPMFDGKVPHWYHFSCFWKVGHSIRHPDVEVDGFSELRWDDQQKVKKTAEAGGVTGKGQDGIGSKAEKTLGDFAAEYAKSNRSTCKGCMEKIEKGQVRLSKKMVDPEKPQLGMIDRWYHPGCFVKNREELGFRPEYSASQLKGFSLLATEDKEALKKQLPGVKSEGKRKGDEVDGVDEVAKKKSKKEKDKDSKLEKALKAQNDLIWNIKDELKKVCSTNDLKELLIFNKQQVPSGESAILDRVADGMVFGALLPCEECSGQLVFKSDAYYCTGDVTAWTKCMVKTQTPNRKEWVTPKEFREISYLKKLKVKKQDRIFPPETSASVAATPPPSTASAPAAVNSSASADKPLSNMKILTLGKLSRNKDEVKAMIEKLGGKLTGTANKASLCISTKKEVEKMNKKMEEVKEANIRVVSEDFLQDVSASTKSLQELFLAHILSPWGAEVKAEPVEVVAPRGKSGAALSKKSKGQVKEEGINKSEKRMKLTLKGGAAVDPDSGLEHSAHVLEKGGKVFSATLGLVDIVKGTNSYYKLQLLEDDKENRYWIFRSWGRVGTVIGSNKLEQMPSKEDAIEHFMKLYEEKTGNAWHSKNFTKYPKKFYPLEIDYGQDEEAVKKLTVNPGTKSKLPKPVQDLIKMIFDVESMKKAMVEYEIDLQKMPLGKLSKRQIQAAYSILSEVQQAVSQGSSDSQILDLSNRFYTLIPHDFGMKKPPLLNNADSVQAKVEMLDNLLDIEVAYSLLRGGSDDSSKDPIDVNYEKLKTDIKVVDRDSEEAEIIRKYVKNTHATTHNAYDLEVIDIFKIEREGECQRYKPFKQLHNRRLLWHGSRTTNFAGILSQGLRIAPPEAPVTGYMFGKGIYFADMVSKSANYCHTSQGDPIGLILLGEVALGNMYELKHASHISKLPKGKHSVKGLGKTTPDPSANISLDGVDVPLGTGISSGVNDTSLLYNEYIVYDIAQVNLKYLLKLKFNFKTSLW
T2 sequence (Q9UGN5 whole entry): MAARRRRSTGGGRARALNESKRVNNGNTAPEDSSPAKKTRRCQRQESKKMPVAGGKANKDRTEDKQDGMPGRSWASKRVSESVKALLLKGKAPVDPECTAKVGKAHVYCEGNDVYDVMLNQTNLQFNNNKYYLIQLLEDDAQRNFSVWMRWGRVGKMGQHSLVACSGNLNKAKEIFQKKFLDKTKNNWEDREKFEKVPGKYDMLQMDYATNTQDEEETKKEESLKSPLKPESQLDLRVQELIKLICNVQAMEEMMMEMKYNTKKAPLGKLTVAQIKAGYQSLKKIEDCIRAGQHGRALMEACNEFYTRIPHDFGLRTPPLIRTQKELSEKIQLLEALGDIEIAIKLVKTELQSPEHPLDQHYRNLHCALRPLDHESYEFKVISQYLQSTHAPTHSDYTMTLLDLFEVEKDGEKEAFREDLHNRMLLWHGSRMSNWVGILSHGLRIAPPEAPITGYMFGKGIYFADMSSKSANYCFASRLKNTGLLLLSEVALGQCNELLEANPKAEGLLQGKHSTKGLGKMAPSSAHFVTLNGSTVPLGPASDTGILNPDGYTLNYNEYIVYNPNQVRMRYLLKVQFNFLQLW

For `CCc1cc2ncc(CN3CCn4c(cnc4C(=O)NC)C3)cc2[nH]c1=O`, the 50% inhibitory concentration (IC50) (as a rule, the concentration that inhibits the measured activity by half) is more than 2500 nM in experiment [1], 2040 nM in experiment [2], 75 nM in experiment [3] and 20 nM in experiment [4].

Take `CCc1cc2ncc(CN3CCC(Nc4ccc(C(=O)NC)nc4)C3)cc2[nH]c1=O` (stereo not drawn): the IC50 in the experiment on DLD-1 [5] was 102000 nM; in experiment [1], 1.61 nM; in experiment [2] it was 9440 nM; in experiment [3] it was 0.94 nM; in the experiment with DLD-1 [6], 43.8 nM; in experiment [4], 68 nM.

On to `CCc1cc2ncc(CN3CCN(c4ccc5nc(C(F)(F)F)[nH]c5n4)CC3)cc2[nH]c1=O`, for which the IC50 in experiment [1] was determined as 244 nM; in experiment [2], 1400 nM; in experiment [3], 2.6 nM; in experiment [4] it was 60 nM.

In the case of `CCc1cc2ncc(CN3CC[C@H](Nc4ccc(C(=O)NC)nc4)C3)cc2[nH]c1=O`, the IC50 in the experiment on DLD-1 [5] was 77100 nM; in experiment [1] it was 1460 nM; in experiment [2], 4170 nM; in experiment [3], 33 nM; in the experiment with DLD-1 [6], more than 2500 nM; in experiment [4], 137 nM.

As for `CCc1cc2ncc(CN3CC[C@@H](Nc4ccc(C(=O)NC)nc4)C3)cc2[nH]c1=O`, the IC50 was 43800 nM with DLD-1 [5]; 1.85 nM in experiment [1]; 3010 nM in experiment [2]; 0.49 nM in experiment [3]; 4.82 nM with DLD-1 [6]; 133 nM in experiment [4].

As for `CCc1cc2ncc(CN3CCN(c4ccc5oc(=O)[nH]c5c4)CC3)cc2[nH]c1=O`, the IC50 in experiment [1] is 10.4 nM; in experiment [2], 994 nM; in experiment [3], 2 nM; in experiment [4] it was 87 nM.

`CCc1cc2ncc(CN3CCN(c4cnc5cn[nH]c5c4)CC3)cc2[nH]c1=O`: the IC50 in experiment [1] is 231 nM; in experiment [2] it was 210 nM; in experiment [3], 0.9 nM; in experiment [4], 5.2 nM.

Take `CCc1cc2ncc(CN3CCN(c4ccc(C(C)(C)O)nc4)CC3)cc2[nH]c1=O`: the IC50 in experiment [1] is more than 2500 nM; in experiment [2] it was 14000 nM; in experiment [3] it was 397 nM; in experiment [4], 450 nM.

For `CCc1cc2ncc(CN3CCc4cc(/C=C/C(=O)NC)ccc4C3)cc2[nH]c1=O`, the IC50 in the experiment with DLD-1 [5] was 33000 nM; in experiment [1], 11.2 nM; in experiment [2] it was 1160 nM; in experiment [3], 0.4 nM; in the experiment with DLD-1 [6] it was 10.8 nM; in experiment [4] it was 41.5 nM.

For `CCc1cc2ncc(CN3CCN(c4ccc(C(=O)NC)c5nccn45)CC3)cc2[nH]c1=O`, the IC50 with DLD-1 [5] is 8700 nM; in experiment [1], 3.58 nM; in experiment [2] it was 1560 nM; in experiment [3], 0.63 nM; in the experiment with DLD-1 [6], 161 nM; in experiment [4] it was 982 nM.

For `CCc1cc2ncc(CN3CC4(C3)CN(c3ccc(C(=O)NC)nc3)C4)cc2[nH]c1=O`, the IC50 with DLD-1 [5] turned out to be 28100 nM; in experiment [1] it was 2.97 nM; in experiment [2], 839 nM; in experiment [3], 0.59 nM; in the experiment with DLD-1 [6], 164 nM; in experiment [4] it was 9 nM.

For the compound `CCc1cc2ncc(CN3CCN(c4ccc(C(N)C(F)(F)F)nc4)CC3)cc2[nH]c1=O` (stereo not drawn), the IC50 in experiment [1] is more than 2500 nM; in experiment [2] it was 11800 nM.

`CCc1cc2ncc(CN3CCN(c4ccc(OC(F)F)nc4)CC3)cc2[nH]c1=O`: the IC50 in the experiment with DLD-1 [5] was 15200 nM; in experiment [1], 4.51 nM; in experiment [2] it was 6300 nM; in experiment [3] it was 1 nM; in the experiment on DLD-1 [6] it was 66 nM; in experiment [4], 154 nM.

`CCc1cc2ncc(CN3CCC(Nc4ccc(C(=O)NC)nc4)CC3)cc2[nH]c1=O`: the IC50 was 259 nM in experiment [1], 3050 nM in experiment [2], 3.4 nM in experiment [3] and 40 nM in experiment [4].

With `CCc1cc2ncc(CN3CCc4nc(C(=O)NC)ccc4C3)cc2[nH]c1=O`, the IC50 in experiment [1] is more than 2500 nM; in experiment [2], 4040 nM; in experiment [3], 348 nM; in experiment [4], 485 nM.

`CCc1cc2ncc(CN3C[C@@H]4C[C@H]3CN4c3ccc(C(=O)NC)nc3)cc2[nH]c1=O`: the IC50 in experiment [1] is more than 2500 nM; in experiment [2], 37700 nM; in experiment [3] it was 40 nM; in experiment [4], 340 nM.

For the compound `CCc1cc2ncc(CN3CCN(c4ccc(C(=O)NC)nc4)CC3)cc2[nH]c1=O` [SARUPARIB], the IC50 was found to be 12100 nM in the experiment on DLD-1 [5] and 0.915 nM with DLD-1 [6].

Take `CCc1cc2ncc(CN3CC(Nc4ccc(C(=O)NC)nc4)C3)cc2[nH]c1=O`: the IC50 in the experiment with DLD-1 [5] was determined as 89200 nM; in experiment [1], 4.76 nM; in experiment [2] it was 12000 nM; in experiment [3], 2.6 nM; in the experiment with DLD-1 [6], 25.6 nM; in experiment [4], 192 nM.

Turning to `CCc1cc2ncc(CN3CCN(c4cc5cccc(C(=O)NC)c5cn4)CC3)cc2[nH]c1=O`, the IC50 was 1570 nM in experiment [1], 2980 nM in experiment [2], 14 nM in experiment [3] and 151 nM in experiment [4].

Turning to `CCc1cc2ncc(CN3CC4CN(c5ccc(C(=O)NC)nc5)CC4C3)cc2[nH]c1=O` (stereo not drawn), the concentration for half-maximal inhibition (IC50) was 2980 nM with DLD-1 [5]; 8.14 nM in experiment [1]; 678 nM in experiment [2]; 0.34 nM in experiment [3]; 46.8 nM in the experiment with DLD-1 [6]; 18 nM in experiment [4].

On to `CCc1cc2ncc(CN3CCN(c4ccc5cc[nH]c5n4)CC3)cc2[nH]c1=O`, for which the IC50 in experiment [1] stood at 64 nM; in experiment [2], 114 nM; in experiment [3], 1.3 nM; in experiment [4], 21 nM.

For the compound `CCc1cc2ncc(CN3CCN(c4ccc5cn[nH]c5n4)CC3)cc2[nH]c1=O`, the IC50 in the experiment on DLD-1 [5] stood at 15600 nM; in experiment [1], 4.78 nM; in experiment [3] it was 0.41 nM; with DLD-1 [6] it was 395 nM.

As for `CCc1cc2ncc(CN3CCN(c4cc5c(cn4)NC(=O)CC5)CC3)cc2[nH]c1=O`, the IC50 in experiment [1] was 727 nM; in experiment [2] it was 167 nM; in experiment [3], 5.4 nM; in experiment [4] it was 38 nM.

As for `CCc1cc2ncc(CN3CCN(c4ccc5[nH]ncc5n4)CC3)cc2[nH]c1=O`, the IC50 in experiment [1] was determined as 380 nM; in experiment [2] it was 1170 nM; in experiment [3], 0.78 nM; in experiment [4] it was 23 nM.

For the compound `CCc1cc2ncc(CN3CC4CCC(C3)N4c3ccc(C(=O)NC)nc3)cc2[nH]c1=O`, the concentration for half-maximal inhibition (IC50) in experiment [1] is more than 2500 nM; in experiment [3] it was 41 nM.

Take `O=C(c1cc(Cc2n[nH]c(=O)c3ccccc23)ccc1F)N1CCN(C(=O)C2CC2)CC1` [OLAPARIB]: the half-inhibitory concentration (IC50) with DLD-1 [5] is 23300 nM; in the experiment on DLD-1 [6], 172 nM.

Turning to `CCc1cc2ncc(CN3CC4(CCN(c5ccc(C(=O)NC)nc5)CC4)C3)cc2[nH]c1=O`, the IC50 in experiment [1] came out at 158 nM; in experiment [3], 12 nM.

Regarding `CCc1cc2ncc(CN3CC4CC(C3)N4c3ccc(C(=O)NC)nc3)cc2[nH]c1=O`, the half-inhibitory concentration (IC50) in experiment [1] and in experiment [3] was more than 2500 nM each time.
